As usually defined, the EC50 is the concentration at which the effect is half-maximal. As a reminder, the IC50 is the concentration needed to halve the response being measured.

Here are results for 71 molecules from PubChem BioAssay AID179 (DTP/NCI, 2004).

“And” between values parts separate entries of the source, which are not always exact repeats. Equal entries are not always repeated. The source made the active and inactive calls.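 The calls were made as follows: active = compounds giving half or more protection of infected cells from virus-caused growth loss, again on retest; inactive = the rest.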

The test system of the experiment is CEM cells HIV-1 protection, formazan growth assay. The experiment in a line: NCI AIDS Antiviral Assay. The conditions noted are these: for IC50: measured here: growth of uninfected CEM cells. Summed up: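 Steps: treat uninfected and HIV-1-infected human CEM cells at five drug levels; quantify growth by soluble formazan; retest any compound reaching 50% protection; classify actives from the retest.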

As for `Cc1cc(-c2ccc(N=Nc3cc(S(=O)(=O)O)c4cccnc4c3O)c(C)c2)ccc1N=Nc1cc(S(=O)(=O)O)c2cccnc2c1O`, the 50% effective concentration (EC50) was 60.3 µM and the IC50 was 85.1 µM.

Consider `CC(C)=CCOc1cc(O)c2c(O)c3c(cc2c1)CC(C)(C)CC3=O`, for which the EC50 was over 100 µM and the IC50 stood at 7.08 µM. `COC(=O)/C=C/C1C2C3(CCC(C)C12C)OCCS3` (stereo unspecified): the EC50 was over 126 µM and the half-inhibitory concentration (IC50) is over 126 µM. As for `CC1(C)OC(=O)c2cc(C(=CCCO)c3cc(Cl)c4c(c3)C(=O)OC(C)(C)O4)cc(Cl)c2O1`, the EC50 is over 200 µM and the half-inhibitory concentration (IC50) turned out to be 28.8 µM.

On to `CC(SSc1ccc(C(C)(C)C)cc1)c1ccccc1` (stereo unspecified), for which the EC50 is over 200 µM and the IC50 was 8.51 µM.

With `CC(=O)c1cccc(C(C)=O)c1N=Cc1ccccc1`, the result was inactive. For the molecule `Clc1nn2nnnc2c2ccccc12`, the EC50 was over 66.1 µM and the IC50 worked out at 1.23 µM. As to `CC1=C(CO)C(=O)O[C@@H]([C@@H](CO)[C@H]2CCC3C4C[C@@H](O)[C@@]5(O)CC=CC(=O)[C@]5(C)C4CC[C@@]32C)C1` (stereo partly specified), the result was inactive.

As for `O=C(Nc1ccccc1)c1c(O)[nH]c(=S)[nH]c1=O`, the EC50 was 11.2 µM and the 50% inhibitory concentration (IC50) came to 21.4 µM.

Turning to `CC(=O)O[C@@H]1CCN(C(=O)C(NC(=O)OC(C)(C)C)C(C)C)[C@@H]1C(O)CC(=O)O` (stereo partly specified), the EC50 was over 200 µM and the half-inhibitory concentration (IC50) was over 200 µM. Consider `O=C1c2c(O)cc(O)cc2OC(c2ccc(O)cc2)C1C1C(=O)c2c(O)cc(O)cc2OC1c1ccc(O)cc1` (stereo unspecified), for which the EC50 is over 200 µM and the IC50 was determined as 46.8 µM. In the case of `Cc1cccc2c1C(=O)OC2(c1cccc2ccccc12)c1cccc2ccccc12`, the outcome was inactive. With `Nc1nn2cc3c(nc2c1N=Nc1ccccc1)CCC3`, the EC50 was over 200 µM and the concentration for half-maximal inhibition (IC50) is over 200 µM. `COc1cc2ccccc2cc/c1=N\O`: the EC50 was over 200 µM and the IC50 was 41.7 µM. For `COC(=O)[C@H]1[C@H](OC(=O)[C@@H](OC)c2ccccc2)ON2CC[C@@H](OC(=O)c3ccccc3)[C@H]12`, in that order: over 200 µM and 178 µM. On to `CC(=O)NC(=O)CC(=O)c1ccccc1`, for which the EC50 is over 631 µM and the IC50 was over 631 µM.

As for `CC1OC(n2cc(F)c(=O)[nH]c2=O)C=CC1O` (stereo unspecified), the EC50 is over 1020 µM and the IC50 was 407 µM. With `C=C(Br)CNC(=O)Nc1ccccn1`, the EC50 is over 200 µM and the IC50 is over 200 µM. Regarding `COP1(=S)OCC2OC(n3cc(C)c(=O)[nH]c3=O)CC2O1` (stereo unspecified), the EC50 was over 100 µM and the IC50 is over 100 µM. As for `COC1/C=C/OC2(C)Oc3c(C)c(O)c4c(O)c(cc(OCC(=O)N(C)CC(=O)OC(C)(C)C)c4c3C2=O)NC(=O)/C(C)=C/C=C/C(C)C(O)C(C)C(O)C(C)C(OC(C)=O)C1C` (stereo unspecified), the EC50 is over 200 µM and the IC50 came out at 28.2 µM. Turning to `CCOP(=O)(O)C1C(CO)OC(n2ccc(=O)[nH]c2=O)C1O` (stereo unspecified), the EC50 was over 200 µM and the concentration for half-maximal inhibition (IC50) was over 200 µM. Turning to `CCC1CCN=C(Cn2cc(C)c(=O)[nH]c2=O)N1` (stereo unspecified), the EC50 is over 200 µM and the IC50 was over 200 µM.

Take `CCCCCCCCCCCCCCC[C@@H](O)C[N+](C)(C)CCO`: the EC50 was over 200 µM and the concentration for half-maximal inhibition (IC50) was determined as 2.82 µM.

`CC1CC(C)CC(NC2=NCCO2)C1` (stereo unspecified): the EC50 is over 200 µM and the 50% inhibitory concentration (IC50) is over 200 µM.

As for `CCCCCCCCCCCCC(Br)C(=O)SCCNC(=O)CCNC(=O)[C@@H](O)C(C)(C)COP(=O)(O)OP(=O)(O)OCC1OC(n2cnc3c(N)ncnc32)C(O)C1OP(=O)(O)O` (stereo partly specified), the result was inactive. Still for that read-out and setting: under `CCOC(=O)C(Cc1c(C=O)[nH]c2ccccc12)(NC(=O)c1ccccc1)C(=O)OCC` stands “inactive”. As to `Cc1cc(NS(=O)(=O)c2ccc(Nc3c4ccccc4nc4ccc(C(=O)Nc5ccc(S(=O)(=O)N=C(N)N)cc5)cc34)cc2)no1`, the EC50 is over 200 µM and the IC50 turned out to be 110 µM. For the molecule `Cc1cc(C)c(S(=O)(=O)N(CCCCCCN)OCCCN)c(C)c1`, the EC50 was over 200 µM and the IC50 is 30.2 µM. For `COC(=O)c1ccc(/C=C/c2cc(O)ccc2O)cc1` the same measures were over 20 µM and 3.09 µM. For `CCCc1cc(=O)oc2c3c(cc(OC(C)C)c12)O[C@H](C)[C@@H](C)[C@H]3O`, in that order: over 200 µM and 12 µM. On to `O=C1c2ccccc2C(=O)N1CC[P+](c1ccccc1)(c1ccccc1)c1ccccc1`, for which the EC50 is over 200 µM; the IC50 is > 200 µM and 107 µM. As to `CCCCCCN1CCc2c(C)c(C#N)c3nc4ccccc4n3c21`, the EC50 is over 100 µM and the 50% inhibitory concentration (IC50) is 17.8 µM. Take `Cc1c(C2(c3cc(C(C)C)c(O)c(CN(CC(=O)O)CC(=O)O)c3C)OS(=O)(=O)c3ccccc32)cc(C(C)C)c(O)c1CN(CC(=O)O)CC(=O)O`: the EC50 is over 100 µM and the IC50 was over 100 µM. For `O=C(O)Cc1ccccc1`, the EC50 was over 200 µM and the IC50 was over 200 µM.

Turning to `CNc1ccccc1S(=O)(=O)c1ccccc1[N+](=O)[O-]`, the EC50 is 3.55 µM and the IC50 amounted to 47.9 µM. Consider `C=CP(CCP(CCP(C=C)N(CC)CC)c1ccccc1)N(CC)CC` (stereo unspecified), for which the EC50 is over 6.46 µM and the IC50 was over 6.46 µM.

For `O=C1N[C@@H]([C@H](CCCCCO)OC(=O)c2ccccc2)CO1`, the EC50 was over 200 µM and the IC50 is over 200 µM.

For `CCOC(=O)/C(O)=C(/C(=O)OC)c1ccc(Cl)cc1`, the EC50 is over 427 µM and the concentration for half-maximal inhibition (IC50) was over 427 µM.

Turning to `C/C(=N/N)c1ccc2[nH]c3c(C)cc([N+](=O)[O-])c(C)c3c2c1`, the EC50 is over 24.5 µM and the IC50 came to 4.9 µM. For `O=C(Nc1ccc(Cl)cc1Cl)C1C(=O)C(=O)N(c2ccc(Cl)cc2Cl)C1=O` (stereo unspecified) the same measures were over 8.51 µM and over 8.51 µM. For `CSc1nnc(SC)nn1` the same measures were over 200 µM and 0.851 µM. For the molecule `S=C1NC2(CCCCC2)N2C(=S)NC3(CCCCC3)N12`, the result was inactive. Turning to `CN(CCCNC(=O)c1cn(C)c2c1ccc1ccccc12)CCCNC(=O)c1cn(C)c2c1ccc1ccccc12`, the EC50 was over 200 µM and the half-inhibitory concentration (IC50) came out at 2.88 µM. For `CCCCN(CC)C(=O)C1=C(C)NC(C)=C(C(=O)N(CC)CCCC)C1` the same measures were over 200 µM and 135 µM. For `COc1cc(N(CCC#N)CCC#N)ccc1/C(N=Nc1ccc(C)cc1)=N/NC(=O)c1cc(Br)ccc1O`, in that order: over 200 µM and 12.6 µM. For `CCC/C(=N\NC(=S)N1CC2CCC(CC2)C1)c1ccccn1`, in that order: over 6.76 µM and 0.148 µM. For the molecule `Cc1cc(=O)n2c(nc3cc(C)c(C)cc32)s1`, the EC50 was over 200 µM and the concentration for half-maximal inhibition (IC50) is over 200 µM. Take `O=C(/C=C/c1ccc2c(c1)OCO2)N1CCCCC1`: the outcome was inactive. Take `N#C/C(=C/NC(=S)Nc1ccccc1)C(N)=O`: the EC50 was over 200 µM and the half-inhibitory concentration (IC50) was over 200 µM. Turning to `O=C1c2c(ccc3c2CCC3)CC12Cc1ccccc1C2`, the EC50 was over 200 µM and the IC50 is over 200 µM.

For the molecule `COc1ccc(-c2oc3c(OC)c(OC)cc(O)c3c(=O)c2OC)cc1`, the EC50 was over 200 µM and the IC50 is over 200 µM. As to `Cc1[nH]ccc2c1[nH]c1cc(=O)ccc12`, the EC50 was over 1070 µM and the IC50 stood at 16.6 µM. For the molecule `c1ccc2sc(NCCSSCCNc3nc4ccccc4s3)nc2c1`, the EC50 was over 200 µM and the IC50 is 23.4 µM. For `O=C(NCCCCCN1CCC2(CCCCC2)CC1)C(c1ccccc1)C1CCCCC1` (stereo unspecified), in that order: over 200 µM and 5.75 µM. For `COc1cc(CCNC(C)=O)cc(OC)c1OC`, in that order: over 200 µM and over 200 µM.

As for `CC(C)C1=C(O)C2=C(C(=O)C1=O)C1(C)CCCC(C)(C)C1CC2O` (stereo unspecified), the EC50 was over 200 µM; the IC50 was 14.5 µM and 13.8 µM.

`Clc1ccc(-c2cc(=[N+]3CC[N+](=c4cc(-c5ccc(Cl)cc5)ss4)CC3)ss2)cc1`: the half-maximal effective concentration (EC50) is 6.31 µM and the IC50 stood at 129 µM.

As to `C=CC[C@H]1O[Si](C(C)(C)C)(C(C)(C)C)[C@H](C)[C@H]1C`, the EC50 is over 200 µM and the half-maximal inhibitory concentration (IC50) was over 200 µM.

As to `COc1ccc(N2C(=O)CC(c3c[nH]c4ccccc34)C2=O)cc1` (stereo unspecified), the EC50 was over 200 µM and the half-inhibitory concentration (IC50) is 182 µM. As for `CN1C(=O)C(CCO)(C(C)(C)C)c2ccccc21` (stereo unspecified), the EC50 is over 200 µM and the IC50 was over 200 µM. For the molecule `CC(=O)N1[C@H](C(=O)O)CS[C@H]1c1ccc(F)cc1`, the result was inactive. In the case of `COC12CC(=O)C(C(C)=O)=C(O)C1(C)c1c(OC(C)=O)c(C)c(O)c(C(C)=O)c1O2` (stereo unspecified), the EC50 was over 603 µM and the half-inhibitory concentration (IC50) worked out at 10.7 µM.

As to `CC(C)(C)[Si](C)(C)OC1C(/C=N\O)OC(n2cnc3c(N)ncnc32)C1O[Si](C)(C)C(C)(C)C` (stereo unspecified), the EC50 is over 200 µM and the IC50 is 3.02 µM. Turning to `COc1ccc(/C(=C\c2cc(OC)c(OC)cc2[N+](=O)[O-])C(=O)O)cc1`, the outcome was inactive. Turning to `CCOC(=O)/C=C/C1OC(C)(C)OC1/C=C/C(=O)OCC` (stereo unspecified), the EC50 was over 200 µM and the half-inhibitory concentration (IC50) came out at 27.5 µM. For `COc1cc(C(=O)C/C(CCCC(=O)Nc2ccccc2[N+](=O)[O-])=N/NC(=O)c2cc3ccccc3cc2O)ccc1O` the same measures were over 32.4 µM and 27.5 µM. For `Cc1nc2ccccc2c(=O)n1-c1ccccc1F` the same measures were over 708 µM and 437 µM. For `N#CCC(=O)NN=C1CCCCC1` the same measures were over 200 µM and over 200 µM. In the case of `COC1=CC(=O)c2nccc(C)c2C1=O`, the result was inactive.

Consider `CC(C)c1ccc(/C(O)=C/C(=O)C(=O)/C=C(/O)c2ccc(C(C)C)cc2)cc1`, for which the result was inactive. Consider `N#C/C1=C(\C#N)N=Cc2ccccc2NCCNc2ccccc2C=N1`, for which the EC50 is over 200 µM and the IC50 is over 200 µM.
